Values after ≈ are worked out from the molar mass of the structure shown.
Biological target: T1, α-glucosidase
T1 construct: gene MAL12; PDB 3A4A isomaltase is only a docking homologue
Assay: pNPG hydrolysis, absorbance […] nm
Assay type: biochemical, Saccharomyces cerevisiae
Conditions: 5 mM p-NPG stock (100 µL of 250 µL), 0.1 M phosphate buffer pH 6.8, 37 °C, 10 min preincubation

IC50	Structure (SMILES)
114.45 ± 0.31 µg/mL (≈ 357 µM)	O=C1c2c(O)cc(O)cc2O[C@H](c2cc(O)c(O)c(O)c2)[C@H]1O [dihydromyricetin]
447.50 ± 17.27 µg/mL (≈ 753 µM)	C[C@@H]1O[C@@H](OC[C@H]2O[C@@H](Oc3c(-c4ccc(O)cc4)oc4cc(O)cc(O)c4c3=O)[C@H](O)[C@@H](O)[C@@H]2O)[C@H](O)[C@H](O)[C@H]1O [kaempferol-3-O-rutinoside]

Source: publication PMC6943536, “Free and Bound Phenolics of Buckwheat Varieties: HPLC Characterization, Antioxidant Activity, and Inhibitory Potency towards α-Glucosidase with Molecular Docking Analysis” (Antioxidants, 2019)
